Measurements: patent publication US6376535B2, “Oxygen-containing heterocyclic compounds” (Kyowa Hakko Kogyo Co., Ltd., priority 1998, dated 2002)

Biological target: T1, Recombinant Human PDE IV Enzyme (HSPDE4A) (Homo sapiens, UniProt P27815)
T1 construct: made in house; host or cells: E. coli
Test: Inhibition Test on Recombinant Human PDE IV Enzyme
Type: biochemical
Conditions: substrate [3H]cAMP 1 μmol/L
Description: Inhibition Test on Recombinant Human PDE IV Enzyme
Human phosphodiesterase cDNA (HSPDE4A) was isolated from testicles. Its predicted amino acid sequence is identical with the sequence (HSPDE4A5) reported by Bolger, G. et al. (Mol. Cell. Biol., 6558 (1993)) except that 223 amino acids have been deleted from the N-terminal thereof. This recombinant protein was expressed by an E. coli expression plasmid and then purified. The PDE activity was measured in the following 2-step process according to the method of Kincaid, R. and Manganiello, V. [Method. Enzymol., 159, 457 (1988)]. The substrate used was [^3H]cAMP (final concentration: 1 μmol/L), and the reaction was performed in a standard mixture containing N,N-bis(2-hydroxyethyl)-2-aminoethanesulfonic acid (50 mmol/L, pH 7.2), MgCl2 (1 mmol/L) and soybean trypsin inhibitor (0.1 mg/ml). The reaction was initiated by adding the enzyme thereto, and the mixture was incubated at 30° C. for 10 to 30 minutes. The reaction was quenched by hydrochloric acid, and the formed 5′-AMP was completely decomposed with […]. This sample was subjected to chromatography on DEAE-Sephadex A-25, and the eluted [^3H]adenosine was counted […] with a scintillation counter. The test compound was added after dissolved (concentration: 1.7%) in DMSO.

T1 sequence (P27815 224-886 limits assumed): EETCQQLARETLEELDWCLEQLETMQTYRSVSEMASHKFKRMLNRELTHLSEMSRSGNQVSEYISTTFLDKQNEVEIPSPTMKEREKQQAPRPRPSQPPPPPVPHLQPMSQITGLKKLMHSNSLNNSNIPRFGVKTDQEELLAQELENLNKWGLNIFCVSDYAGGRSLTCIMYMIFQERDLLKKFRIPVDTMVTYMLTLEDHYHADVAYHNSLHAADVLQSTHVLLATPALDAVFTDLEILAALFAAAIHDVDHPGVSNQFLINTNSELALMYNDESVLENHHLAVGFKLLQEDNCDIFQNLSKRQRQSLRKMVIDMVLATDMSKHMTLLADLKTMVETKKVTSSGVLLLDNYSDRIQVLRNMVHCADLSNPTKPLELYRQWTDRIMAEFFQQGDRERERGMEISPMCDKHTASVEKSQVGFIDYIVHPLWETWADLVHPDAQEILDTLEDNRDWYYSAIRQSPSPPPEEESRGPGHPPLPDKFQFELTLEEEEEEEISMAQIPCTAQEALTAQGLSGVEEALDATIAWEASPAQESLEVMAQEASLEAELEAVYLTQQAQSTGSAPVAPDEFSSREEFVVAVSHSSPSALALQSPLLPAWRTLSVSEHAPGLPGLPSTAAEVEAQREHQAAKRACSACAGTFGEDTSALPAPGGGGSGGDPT

Row | SMILES | enzyme inhibitory activity
1 | COc1ccc(C2(C#N)CCC(C(=O)O)CC2)c2c1OCCO2 (stereo not drawn) [Compound 5, cis-4-Cyano-4-(8-methoxy-1,4-benzodioxan-5-yl)cyclohexanecarboxylic acid] | over 87%

System: not given
Test: not given
Conditions: not given

Row | SMILES | melting point [°C]
2 | COC=C1CCC(C#N)(c2ccc(OC)c3c2OCCO3)CC1 (stereo not drawn) [Compound 6, 1-(8-Methoxy-1,4-benzodioxan-5-yl)-4-methoxymethylenecyclohexane carbonitrile] | 112 to 113
3 | CCOC(=O)C=C1CCC(C#N)(c2ccc(OC)c3c2OCCO3)CC1 (stereo not drawn) [Compound 10, Ethyl 4-cyano-4-(8-methoxy-1,4-benzodioxan-5-yl)cyclohexanylideneacetate] | 110 to 112
4 | COc1ccc(C2(C#N)CCC(=CC(=O)O)CC2)c2c1OCCO2 (stereo not drawn) [Compound 11, 4-Cyano-4-(8-methoxy-1,4-benzodioxan-5-yl)cyclohexanylideneacetic acid] | 203 to 204
5 | COc1ccc(-c2cccc3c2COC3=O)c2c1OCCO2 [Compound 22, 4-(8-Methoxy-1,4-benzodioxan-5-yl)-1(3H)-isobenzofuranone] | 158 to 160
6 | COc1ccc(-c2ccc3c(c2)C(=O)NC3=O)c2c1OCCO2 [Compound 23, 4-(8-Methoxy-1,4-benzodioxan-5-yl)phthalimide] | 285 to 287
